Source: the NIST ThermoML archive (doi:10.1016/j.fluid.2015.10.026)

Details: Liquid, Brillouin light scattering

CCOC(C)(C)C [2-ethoxy-2-methylpropane]
Details	speed of sound [m/s]
293.15 K, 10 kPa	1059.2
293.15 K, 1000 kPa	1060.3
293.15 K, 2500 kPa	1070.5
293.15 K, 4000 kPa	1080.8
293.15 K, 5500 kPa	1091.1
293.15 K, 7000 kPa	1101.5
293.15 K, 8500 kPa	1111.9
293.15 K, 10000 kPa	1122.4
303.15 K, 10 kPa	1013
303.15 K, 1000 kPa	1019.4
303.15 K, 2500 kPa	1030.3
303.15 K, 4000 kPa	1041.2
303.15 K, 5500 kPa	1052
303.15 K, 7000 kPa	1062.8
303.15 K, 8500 kPa	1073.5
303.15 K, 10000 kPa	1084.2
313.15 K, 10 kPa	967.71
313.15 K, 1000 kPa	978.21
313.15 K, 2500 kPa	989.92
313.15 K, 4000 kPa	1001.5
313.15 K, 5500 kPa	1012.9
313.15 K, 7000 kPa	1024.2
313.15 K, 8500 kPa	1035.3
313.15 K, 10000 kPa	1046.3
323.15 K, 20 kPa	923.32
323.15 K, 1000 kPa	936.6
323.15 K, 2500 kPa	949.23
323.15 K, 4000 kPa	961.61
323.15 K, 5500 kPa	973.77
323.15 K, 7000 kPa	985.68
323.15 K, 8500 kPa	997.36
323.15 K, 10000 kPa	1008.8
333.15 K, 40 kPa	879.69
333.15 K, 1000 kPa	894.61
333.15 K, 2500 kPa	908.27
333.15 K, 4000 kPa	921.59
333.15 K, 5500 kPa	934.59
333.15 K, 7000 kPa	947.25
333.15 K, 8500 kPa	959.59
333.15 K, 10000 kPa	971.59
343.15 K, 60 kPa	836.71
343.15 K, 1000 kPa	852.23
343.15 K, 2500 kPa	867.04
343.15 K, 4000 kPa	881.42
343.15 K, 5500 kPa	895.38
343.15 K, 7000 kPa	908.92
343.15 K, 8500 kPa	922.03
343.15 K, 10000 kPa	934.71
353.15 K, 90 kPa	794.25
353.15 K, 1000 kPa	809.46
353.15 K, 2500 kPa	825.54
353.15 K, 4000 kPa	841.11
353.15 K, 5500 kPa	856.15
353.15 K, 7000 kPa	870.68
353.15 K, 8500 kPa	884.68
353.15 K, 10000 kPa	898.16
363.15 K, 130 kPa	752.18
363.15 K, 1000 kPa	766.3
363.15 K, 2500 kPa	783.78
363.15 K, 4000 kPa	800.64
363.15 K, 5500 kPa	816.89
363.15 K, 7000 kPa	832.52
363.15 K, 8500 kPa	847.54
363.15 K, 10000 kPa	861.94
373.15 K, 180 kPa	710.37
373.15 K, 1000 kPa	722.76
373.15 K, 2500 kPa	741.75
373.15 K, 4000 kPa	760.03
373.15 K, 5500 kPa	777.6
373.15 K, 7000 kPa	794.46
373.15 K, 8500 kPa	810.61
373.15 K, 10000 kPa	826.04
383.15 K, 250 kPa	668.66
383.15 K, 1000 kPa	678.84
383.15 K, 2500 kPa	699.46
383.15 K, 4000 kPa	719.28
383.15 K, 5500 kPa	738.29
383.15 K, 7000 kPa	756.49
383.15 K, 8500 kPa	773.88
383.15 K, 10000 kPa	790.47
393.15 K, 340 kPa	626.87
393.15 K, 1000 kPa	634.52
393.15 K, 2500 kPa	656.9
393.15 K, 4000 kPa	678.37
393.15 K, 5500 kPa	698.94
393.15 K, 7000 kPa	718.61
393.15 K, 8500 kPa	737.37
393.15 K, 10000 kPa	755.23
403.15 K, 440 kPa	584.83
403.15 K, 1000 kPa	589.82
403.15 K, 2500 kPa	614.07
403.15 K, 4000 kPa	637.32
403.15 K, 5500 kPa	659.57
403.15 K, 7000 kPa	680.82
403.15 K, 8500 kPa	701.07
403.15 K, 10000 kPa	720.33
413.15 K, 570 kPa	542.3
413.15 K, 1000 kPa	544.74
413.15 K, 2500 kPa	570.98
413.15 K, 4000 kPa	596.12
413.15 K, 5500 kPa	620.17
413.15 K, 7000 kPa	643.12
413.15 K, 8500 kPa	664.98
413.15 K, 10000 kPa	685.74
423.15 K, 730 kPa	499.06
423.15 K, 2500 kPa	527.62
423.15 K, 4000 kPa	554.78
423.15 K, 5500 kPa	580.74
423.15 K, 7000 kPa	605.52
423.15 K, 8500 kPa	629.1
423.15 K, 10000 kPa	651.49
